# Results as given in patent US11623009B2, “Bone fracture repair by targeting of agents that promote bone healing” (Purdue Research Foundation, priority 2015, dated 2023).
# Key:
# solubility in water = assay type: physicochemical; conditions: 6BIO by itself
# Source text: The drug being attached to the unimers was a GSK3β inhibitor, 6BIO. […] By including 6BIO in the unimer design, the unimer solubilized the drug while the drug stabilized the micelle. The oxime of 6BIO was first conjugated to the carboxylic group of a 4-pentynoic acid derivative and then clicked to the azide-containing unimer by the alkyne on the 4-pentynoic acid derivative. Upon completion of the click reaction, the micelle was purified, dried, and formed micelles upon reconstitution in PBS.
# [1] = mouse, in vivo
# Description: CD4 Swiss mice (30-35 g) acquired from Harlan laboratories were used for these experiments.
# The study was performed on 3 groups of mice with 5 mice per group. Two weeks following fracture induction each mouse received 0.1 mCi (0.1 mL) of dose. Animals were then returned to their cages until euthanasia by CO2 overdose at the desired time point (1 h, 4 h, 24 h). Animals were imaged using MiLabs U-SPECT-II/CT. 3D reconstructions were performed using Image J software.
# SPECT/CT biodistribution.
# [2] = 24 h organ biodistribution of radio-iodinated micelles and 6BIO in mice with femoral fracture; assay type: in vivo, CD4 Swiss mice
# Description: Radio-iodination of micelles and 6BIO. The stannylated unimers and stannylated 6BIO (0.3-0.5 μmol) were dissolved in 100 μL DMF. The solutions were transferred to Wheaton V-vials containing a solution of [^125I]NaI (5.0 mCi) in 100 μL DMF phosphate-buffered saline (PBS) (pH 7.4). Chloramine-T was added, and the reaction mixture stirred for 15 min at ambient temperature. Purification of the iodinated micelles was performed using a LH20 column eluted with MeOH. Iodinated 6BIO was dissolved in EtOAc and was washed twice with water. The solvent of all three reactions was evaporated using a stream of nitrogen, and the residue was dissolved with PBS (pH 7.4) to obtain solutions with an activity concentration of 370 kBq/100 μL. The overall radiochemical yield was ca. 10%.
# Murine fracture induction. […] The skin incision was made medial parapetellar.
# Injection and dissection techniques/counting for 24 h biodistribution. From the iodinated products described previously 1 uCi/mL solutions were made in sterile PBS. […] Two weeks following fracture induction, each mouse received a 0.1 μCi (0.1 mL) dose of the radio-iodinated linear micelles, branched micelle, or free drug. Animals were then placed back in their cages for 24 h. At 24 h they were sacrificed using CO2 excess. Blood was drawn from a cardiopuncture and all other organs measured were removed (lungs, liver, spleen, kidneys, fractured femur, healthy femur). The activity was counted using Packard Cobra Auto-Gamma and was normalized by dividing the count rate by the weights of each organ.
# Biodistribution: Organ biodistribution at 24 h. […] Although a cleavable linker is necessary for therapy studies, it may pose a problem with biodistribution studies. At 24 h of an in vivo study, 30% of the drug may be released. In a biodistribution study, premature release would not give accurate information on how well the targeting ligand is able to remain in the fracture site. A non-degradable oxime ether linker replaced the oxime-ester linker in the micelles for biodistribution. […]
# [3] = test system: stabilized femoral fracture; assay: fracture healing efficacy, μCT analysis of fracture callus; assay type: in vivo, male CD4 Swiss Webster mice; conditions: 6.9 nmol/kg/dose i.v. every 3 days, 3 weeks after fracture, mean±SEM
# Description: Mouse handling. All animal experiments were performed in accordance to Purdue University's IACUC approved protocols. Forty mice (10 per group) 31-35 g male CD4 Swiss Webster mice were purchased from Harlan laboratories. Mice were able to move freely throughout the experiment. At 3 weeks following fracture induction, mice were euthanized using a CO2 overdose. […] Mouse bone fracture. […] The skin incision was made over the knee. The patella was then dislocated and a small hole was made under the patella with a 25 guage needle. The needle was used to ream the intramedullary canal. A 22 guage locking nail was produced by flattening both ends was then inserted. The incision site was sutured and the femur was then fractured using a three-point bending device. […] Mouse dosing. Mice were dosed intravenously by tail vein injection every 3 days starting on the day of fracture induction. […] Mice receiving drug dosages were administered drugs at the follow dose 6.9 nmol/kg/dose in approximately 0.1 mL of PBS. PBS control mice received 0.1 mL of PBS. μCT analysis. […] The bones were scanned while immersed in PBS to prevent dehydration. Scanco μCT software was used to analyze the images for bone density, total volume (TV), relative bone volume (BV/TV), trabecular thickness (Tb.Th), and trabecular spacing (Tb.Sp). Volumes of interest included the fracture callus, and both cortical and trabecular bone between the points on the cortical bone where the bone was fractured. Statistical analysis. Statistical analyses were calculated using Prism GraphPad software. Data is presented in results as mean±standard error of the mean (SEM).
# [4] = 24 h after injection, two weeks after fracture, 125I-labelled, non-degradable oxime ether linker
smiles,measurement,setting,value
"O=C1Nc2ccccc2C1=C1Nc2cc(Br)ccc2C1=NO [6BIO, 6′-bromoindirubin-3′-oxime]",solubility in water,solubility in water,not soluble in water
same,SPECT/CT distribution at 1 h,[1],primarily found in the stool
same,SPECT/CT distribution at 4 h,[1],primarily contained in the bowel
same,SPECT/CT distribution at 24 h,[1],appears to be cleared
same,"accumulation in the lungs, liver, and spleen",[2]; 24 h,high accumulation
same,accumulation in fractured femurs,[2]; [4],0.4±0.05% of injected dose/gram
same,accumulation in healthy femurs,[2]; [4],0.5±0.10% of injected dose/gram
same,Tb. Sp (trabecular spacing),[3],0.191 ± 0.009 mm
same,bone density of fracture callus,[3],337.8±14.2 mg HAp/cm^3
same,BV/TV (relative bone volume),[3]; listed as Free 6BIO,0.338 ± 0.015
same,TV (callus total volume),[3]; listed as Free 6BIO,48.2 ± 5.8 mm^3
same,Tb. Th (trabecular thickness),[3]; listed as Free 6BIO,0.134 ± 0.007 mm
same,BV/TV (relative bone volume),[3]; listed as free 6BIO,0.338±0.015
same,TV (callus total volume),[3]; listed as free 6BIO,48.2±5.8 mm^3
same,Tb. Th (trabecular thickness),[3]; listed as free 6BIO,0.134±0.007 mm
